From patent publication US5668131A, “Substituted aminoalkylaminopyridines” (BYK Gulden Lomberg Chemische Fabrik GmbH, priority 1993, dated 1997) come the findings set out here.

Each structure is given as a SMILES string. Where a name gives a salt, the structure may show the parent alone.

Broadly, the MIC is the lowest concentration found to suppress growth. Higher therefore signals a less susceptible organism.

The subject of the first test is Helicobacter pylori. The experiment in a line: Activity on Helicobacter pylori (MIC, Columbia agar, 4 days growth period). The format is cell-based. The conditions noted are these: Columbia agar (Oxoid), growth period of 4 days.
On to `Cc1c(N(C)CCN(C)Cc2ccco2)ccnc1CSc1nc2ccccc2[nH]1.Cl.Cl.Cl` [Compound 4, 2-{3-Methyl-4-{N-{2-[N-(2-furfuryl)-N-methylamino]-ethyl}-N-methylamino}-2-pyridyl}-methylthio-1H-benzimidazole trihydrochloride], for which the MIC-Value is less than 1 µg/mL.

The same test, now with this note: Helicobacter pylori, 96 h; Columbia agar (Oxoid), growth period of 4 days.
`CCN(CCN(C)c1ccnc(CSc2nc3ccccc3[nH]2)c1Cl)Cc1ccccc1` [Compound 1, 2-{3-Chloro-4-{N-[2-(N-benzyl-N-ethylamino)ethyl]-N-methylamino}-2-pyridyl)-methylthio-1H-benzimidazole trihydrochloride] displayed an MIC of less than 1 µg/mL.

`CN(CCN1CCc2ccccc2C1)c1ccnc(CSc2nc3ccccc3[nH]2)c1Cl` [Compound 2, 2-{3-Chloro-4-{N-[2-(1,2,3,4-tetrahydro-2-isoquinolinyl)ethyl]-N-methylamino}-2-pyridyl}-methylthio-1H-benzimidazole trihydrochloride] returned an MIC of less than 1 µg/mL.

Molecule `CN(CCN1CCc2ccccc2C1)c1ccnc(CSc2nc3ncccc3[nH]2)c1Cl` [Compound 5, 2-{3-Chloro-4-{N-[2-(1,2,3,4-tetrahydro-2-isoquinolinyl)ethyl]-N-methylamino)-2-pyridyl}-methylthio-1H-imidazo[5,4-b]pyridine] yielded an MIC of less than 1 µg/mL.

Molecule `CN(CCN(C)c1ccnc(CSc2nc3ccccc3[nH]2)c1Cl)Cc1ccccc1` [Compound 6, 2-{3-Chloro-4-{N-[2-(N-benzyl-N-methylamino)-ethyl]-N-methylamino}-2-pyridyl}-methylthio-1H-benzimidazole trihydrochloride] gave an MIC of less than 1 µg/mL.

`CN(CCc1ccccc1)CCN(C)c1ccnc(CSc2nc3ccccc3[nH]2)c1Cl` [Compound 9, 2-{3-Chloro-4-{N-[2-(N-methyl-N-phenethylamino)-ethyl]-N-methylamino}-2-pyridyl}-methylthio-1H-benzimidazole trihydrochloride] displayed an MIC of less than 1 µg/mL.

Turning to `CN(CCN(C)c1ccnc(CSc2nc3ccccc3[nH]2)c1Cl)Cc1ccco1` [Compound 10, 2-{3-Chloro-4-{N-[2-(N-furfuryl-N-methylamino)ethyl]-N-methylamino}-2-pyridyl}-methylthio-1H-benzimidazole trihydrochloride], the MIC was less than 1 µg/mL.

In turn, `CN(CCN1CCC(c2ccccc2)CC1)c1ccnc(CSc2nc3ccccc3[nH]2)c1Cl` [Compound 11, 2-{3-Chloro-4-{N-[2-(4-phenyl-piperidino)-ethyl]-N-methylamino}-2-pyridyl}-methylthio-1H-benzimidazole] came in with an MIC of less than 1 µg/mL.

As to `CN(CCN1CCC(Cc2ccccc2)CC1)c1ccnc(CSc2nc3ccccc3[nH]2)c1Cl` [Compound 12, 2-{3-Chloro-4-{N-[2-[4-benzyl-piperidino)-ethyl]-N-methylamino}-2-pyridyl}-methylthio-1H-benzimidazole], the MIC is less than 1 µg/mL.

Molecule `CN(CCN1CCCCC1)c1ccnc(CSc2nc3ccccc3[nH]2)c1Cl` [Compound 13, 2-{3-Chloro-4-[N-(2-piperidinoethyl)-N-methylamino]-2-pyridyl}-methylthio-1H-benzimidazole] gave an MIC of less than 1 µg/mL.

As to `COc1cc2c(cc1OC)CN(CCN(C)c1ccnc(CSc3nc4ccccc4[nH]3)c1Cl)CC2` [Compound 14, 2-{3-Chloro-4-{N-[2-(6,7-dimethoxy-1,2,3,4-tetrahydro-2-isoquinolinyl)ethyl]-N-methylamino}-2-pyridyl}-methylthio-1H-benzimidazole], the MIC was less than 1 µg/mL.

The molecule `CN(CCN1CCN(c2ccccc2)CC1)c1ccnc(CSc2nc3ccccc3[nH]2)c1Cl` [Compound 15, 2-{3-Chloro-4-{N-[2-(4-phenylpiperazino)-ethyl]-N-methylamino}-2-pyridyl}-methylthio-1H-benzimidazole hydrochloride] registered an MIC of less than 1 µg/mL.

`CN(CCN1CCN(Cc2ccccc2)CC1)c1ccnc(CSc2nc3ccccc3[nH]2)c1Cl` [Compound 16, 2-{3-Chloro-4-{N-[2-(4-benzylpiperazino)-ethyl]-N-methylamino}-2-pyridyl}-methylthio-1H-benzimidazole trihydrochloride] gave an MIC of less than 1 µg/mL.

As to `COc1ccccc1N1CCN(CCN(C)c2ccnc(CSc3nc4ccccc4[nH]3)c2Cl)CC1` [Compound 17, 2-{3-Chloro-4-{N-[2-(4-(2-methoxyphenyl)-piperazino)-ethyl]-N-methylamino}-2-pyridyl}-methylthio-1H-benzimidazole trihydrochloride], the MIC was less than 1 µg/mL.

Turning to `CN(CCCN1CCc2ccccc2C1)c1ccnc(CSc2nc3ccccc3[nH]2)c1Cl` [Compound 18, 2-{3-Chloro-4-{N-[3-(1,2,3,4-tetrahydro-2-isoquinolinyl)-propyl]-N-methylamino}-2-pyridyl}-methylthio-1H-benzimidazole trihydrochloride], the MIC was less than 1 µg/mL.

In turn, `CN(CCCN(C)c1ccnc(CSc2nc3ccccc3[nH]2)c1Cl)Cc1ccccc1` [Compound 19, 2-{3-Chloro-4-{N-[3-(N-benzyl-N-methylamino)propyl]-N-methylamino}-2-pyridyl}-methylthio-1H-benzimidazole trihydrochloride] yielded an MIC of less than 1 µg/mL.

With `COc1cc2c(cc1OC)CN(CCCN(C)c1ccnc(CSc3nc4ccccc4[nH]3)c1Cl)CC2` [Compound 20, 2-{3-Chloro-4-{N-[3-(6,7-dimethoxy-1,2,3,4-tetrahydro-2-isoquinolinyl)-propyl]-N-methylamino}-2-pyridyl}-methylthio-1H-benzimidazole trihydrochloride], the MIC was less than 1 µg/mL.

For the molecule `CN(CCCN1CCC(Cc2ccccc2)CC1)c1ccnc(CSc2nc3ccccc3[nH]2)c1Cl` [Compound 21, 2-{3-Chloro-4-{N-[3-(4-benzyl-piperidino)-propyl]-N-methylamino}-2-pyridyl}-methylthio-1H-benzimidazole trihydrochloride], the MIC is less than 1 µg/mL.
